In ChEMBL document CHEMBL1275577, “Study of the in vitro activities of rifaximin and comparator agents against 536 anaerobic intestinal bacteria from the perspective of potential utility in pathology involving bowel flora” (Antimicrob Agents Chemother, 2009):
Values after ≈ are worked out from the molar mass of the structure shown.

Columns and labels:
Format in all cases: functional
Clostridium scindens = test: Antimicrobial activity against Clostridium scindens by Wadsworth agar dilution method
Clostridium septicum = test: Antimicrobial activity against Clostridium septicum by Wadsworth agar dilution method
[1] = tested on: Paeniclostridium sordellii; test: Antimicrobial activity against Clostridium sordellii by Wadsworth agar dilution method; conditions: Paraclostridium sordellii
Clostridium sp. = test: Antimicrobial activity against Clostridium sp. by Wadsworth agar dilution method
Clostridium sporogenes = test: Antimicrobial activity against Clostridium sporogenes by Wadsworth agar dilution method
Schaalia meyeri = test: Antimicrobial activity against Actinomyces meyeri by Wadsworth agar dilution method
Schaalia odontolytica = test: Antimicrobial activity against Actinomyces odontolyticus by Wadsworth agar dilution method
Bifidobacterium breve = test: Antimicrobial activity against Bifidobacterium breve by Wadsworth agar dilution method
[2] = Antimicrobial activity against Bifidobacterium pseudocatenulatum by Wadsworth agar dilution method
[3] = tested on: Pseudoramibacter alactolyticus; test: Antimicrobial activity against Eubacterium alactolyticum by Wadsworth agar dilution method
Eubacterium biforme = test: Antimicrobial activity against Eubacterium biforme by Wadsworth agar dilution method; conditions: Holdemanella biformis
Eubacterium cylindroides = test: Antimicrobial activity against Eubacterium cylindroides by Wadsworth agar dilution method; conditions: Faecalitalea cylindroides
Eubacterium limosum = test: Antimicrobial activity against Eubacterium limosum by Wadsworth agar dilution method
Holdemania filiformis = test: Antimicrobial activity against Holdemania filiformis by Wadsworth agar dilution method
[4] = tested on: Limosilactobacillus fermentum; test: Antimicrobial activity against Lactobacillus fermentum by Wadsworth agar dilution method
[5] = tested on: Lacticaseibacillus rhamnosus; test: Antimicrobial activity against Lactobacillus rhamnosus by Wadsworth agar dilution method
Cutibacterium acnes = test: Antimicrobial activity against Propionibacterium acnes by Wadsworth agar dilution method
Propionibacterium avidum = test: Antimicrobial activity against Propionibacterium avidum by Wadsworth agar dilution method; conditions: Cutibacterium avidum
[6] = tested on: Propionibacterium propionicum; test: Antimicrobial activity against Propionibacterium propionicum by Wadsworth agar dilution method; conditions: Arachnia propionica
[7] = tested on: Peptostreptococcus anaerobius; test: Antimicrobial activity against Peptostreptococcus anaerobius by Wadsworth agar dilution method
Parvimonas micra = test: Antimicrobial activity against Peptostreptococcus micros by Wadsworth agar dilution method
[8] = tested on: Ruminococcus flavefaciens; test: Antimicrobial activity against Ruminococcus flavefaciens by Wadsworth agar dilution method
Blautia luti = test: Antimicrobial activity against Ruminococcus luti by Wadsworth agar dilution method
Ruminococcus obeum = test: Antimicrobial activity against Ruminococcus obeum by Wadsworth agar dilution method; conditions: Blautia obeum
Ruminococcus torques = test: Antimicrobial activity against Ruminococcus torques by Wadsworth agar dilution method; conditions: Mediterraneibacter torques

## CO[C@H]1/C=C/O[C@@]2(C)Oc3c(C)c(O)c4c(O)c(c5c(nc6cc(C)ccn65)c4c3C2=O)NC(=O)/C(C)=C\C=C\[C@H](C)[C@H](O)[C@@H](C)[C@@H](O)[C@@H](C)[C@H](OC(C)=O)[C@@H]1C [RIFAXIMIN]
Clostridium scindens
  MIC50: 0.25 µg/mL (≈ 0.318 µM)
  MIC90: > 1020 µg/mL
Clostridium septicum
  MIC: 0.25 µg/mL (≈ 0.318 µM)
  MIC50: 0.25 µg/mL (≈ 0.318 µM)
  MIC90: > 1020 µg/mL
[1]
  MIC: 0.25 µg/mL (≈ 0.318 µM)
  MIC50: 0.25 µg/mL (≈ 0.318 µM)
  MIC90: > 1020 µg/mL
Clostridium sp.
  MIC: 0.25 µg/mL (≈ 0.318 µM)
  MIC50: 0.25 µg/mL (≈ 0.318 µM)
  MIC90: > 1020 µg/mL
Clostridium sporogenes
  MIC: 0.25 µg/mL (≈ 0.318 µM)
  MIC50: 0.25 µg/mL (≈ 0.318 µM)
  MIC90: > 1020 µg/mL
Schaalia meyeri
  MIC50: 0.5 µg/mL (≈ 0.636 µM)
  MIC90: > 1020 µg/mL
Schaalia odontolytica
  MIC50: 0.5 µg/mL (≈ 0.636 µM)
  MIC90: > 1020 µg/mL
Bifidobacterium breve
  MIC50: 0.5 µg/mL (≈ 0.636 µM)
  MIC90: > 1020 µg/mL
[2]
  MIC50: 0.5 µg/mL (≈ 0.636 µM)
  MIC90: > 1020 µg/mL
[3]
  MIC50: 0.5 µg/mL (≈ 0.636 µM)
  MIC90: > 1020 µg/mL
Eubacterium biforme
  MIC50: 0.5 µg/mL (≈ 0.636 µM)
  MIC90: > 1020 µg/mL
Eubacterium cylindroides
  MIC50: 0.5 µg/mL (≈ 0.636 µM)
  MIC90: > 1020 µg/mL
Eubacterium limosum
  MIC50: 0.5 µg/mL (≈ 0.636 µM)
  MIC90: > 1020 µg/mL
Holdemania filiformis
  MIC50: 0.5 µg/mL (≈ 0.636 µM)
  MIC90: > 1020 µg/mL
[4]
  MIC50: 0.5 µg/mL (≈ 0.636 µM)
  MIC90: > 1020 µg/mL
[5]
  MIC50: 0.5 µg/mL (≈ 0.636 µM)
  MIC90: > 1020 µg/mL
Cutibacterium acnes
  MIC50: 0.5 µg/mL (≈ 0.636 µM)
  MIC90: > 1020 µg/mL
Propionibacterium avidum
  MIC50: 0.5 µg/mL (≈ 0.636 µM)
  MIC90: > 1020 µg/mL
[6]
  MIC50: 0.5 µg/mL (≈ 0.636 µM)
  MIC90: > 1020 µg/mL
[7]
  MIC: 0.25 µg/mL (≈ 0.318 µM)
  MIC50: 0.25 µg/mL (≈ 0.318 µM)
  MIC90: 4 µg/mL (≈ 5.09 µM)
Parvimonas micra
  MIC: 0.25 µg/mL (≈ 0.318 µM)
  MIC50: 0.25 µg/mL (≈ 0.318 µM)
  MIC90: 4 µg/mL (≈ 5.09 µM)
[8]
  MIC: 0.25 µg/mL (≈ 0.318 µM)
  MIC50: 0.25 µg/mL (≈ 0.318 µM)
  MIC90: 4 µg/mL (≈ 5.09 µM)
Blautia luti
  MIC: 0.25 µg/mL (≈ 0.318 µM)
  MIC50: 0.25 µg/mL (≈ 0.318 µM)
  MIC90: 4 µg/mL (≈ 5.09 µM)
Ruminococcus obeum
  MIC: 0.25 µg/mL (≈ 0.318 µM)
  MIC50: 0.25 µg/mL (≈ 0.318 µM)
  MIC90: 4 µg/mL (≈ 5.09 µM)
Ruminococcus torques
  MIC: 0.25 µg/mL (≈ 0.318 µM)
  MIC50: 0.25 µg/mL (≈ 0.318 µM)
  MIC90: 4 µg/mL (≈ 5.09 µM)
